Measured values taken from patent US6552059B2, “Pharmaceutical composition for and method of treating leukemia” (priority 1995, dated 2003).
Where two headings read alike, the source gives them in different places.

How the values were obtained:
[1] = tested on: leukemia (P388SS); format: in vivo, mouse; conditions: for % increase in survival time versus nontreated control: control = 100
Method: In an in vivo mouse study for leukemia (P388SS), carbendazim (2-carbonylaminobenzimidazole) was tested in combination with griseofulvin.

[2] = tested on: leukemia (P338); format: in vivo; conditions: ten mice; for mean number of survival days: dosed 5 days, off 2, dosed 5, off 3
Method: Mice were randomly selected and divided into five groups of ten mice each: Group 1—a control group receiving canola oil but no drug treatment; Group 2—a treatment group receiving 125 mg of cytoxan (2-bis(2-chloroethyl)-amino-1-oxo-2-aza-5-oxophosphoridin) per kg of body weight; Group 3—a treatment group receiving 4000 mg of carbendazim per kg of body weight; Group 4—a treatment group receiving 2500 mg of carbendazim per kg of body weight; and Group 5—a treatment group receiving 1000 mg of carbendazim per kg of body weight. The five groups were infected with leukemia (P338). The diseased animals were dosed for five days, off two days, dosed again for another five days and off again for three days.

COC1=CC(=O)C[C@@H](C)[C@]12Oc1c(Cl)c(OC)cc(OC)c1C2=O [Griseofulvin]
% increase in survival time versus nontreated control ([1]; griseofulvin 3000 mg/kg, carbendazim 0 mg/kg): 130%
% increase in survival time versus nontreated control ([1]; griseofulvin 4000 mg/kg, carbendazim 0 mg/kg): 165%
% increase in survival time versus nontreated control ([1]; griseofulvin 5000 mg/kg, carbendazim 0 mg/kg): 213%

O=P1(N(CCCl)CCCl)NCCCO1 (centres unmarked) [cytoxan, 2-bis(2-chloroethyl)-amino-1-oxo-2-aza-5-oxophosphoridin, reference compound]
deaths after infection with leukemia ([2]; Group 2, 125 mg cytoxan per kg, up to twenty one days after infection): none died
deaths during the test period ([1]; positive control, 300 mg/kg (qdx1)): no deaths

COC(=O)Nc1nc2ccccc2[nH]1 [carbendazim, 2-(methoxycarbonylamino)benzimidzole]
mean number of survival days ([2]; Group 3, 4000 mg carbendazim per kg, after infection with leukemia): 17.3 days
mean number of survival days ([2]; Group 4, 2500 mg carbendazim per kg): 16.5 days
mean number of survival days ([2]; Group 5, 1000 mg carbendazim per kg): 14.1 days
% increase in survival time versus nontreated control ([1]; griseofulvin 0 mg/kg, carbendazim 1000 mg/kg): 153%
% increase in survival time versus nontreated control ([1]; griseofulvin 0 mg/kg, carbendazim 2000 mg/kg): 190%
% increase in survival time versus nontreated control ([1]; griseofulvin 0 mg/kg, carbendazim 3000 mg/kg): 176%
